How the values were obtained:
[1] = target: Receptor-interacting serine/threonine-protein kinase 2 (Homo sapiens, UniProt O43353); test: Inhibition of RIPK2 in human whole blood assessed as reduction in MDP-induced TNFalpha production preincubated for 30 mins followed by MDP-stimulation and measured after 6 hrs by immunoassay; type: tissue-based
[2] = Oral bioavailability in Sprague-Dawley rat at 2 mg/kg by LC/MS/MS analysis; type: ADME, organism-based; details: in vivo
[3] = Cmax in Gottingen minipig at 1 mg/kg, po by LC/MS/MS analysis; type: ADME, organism-based, Sus scrofa; design: dose 1 mg/kg, route oral; details: pig, in vivo
Intestinal mucosa [4] = test: Antiinflammatory activity in crohn's disease patient derived inflamed intestinal mucosa assessed as reduction in IL6 production measured after overnight incubation by immunoassay; type: functional, tissue-based; details: Homo sapiens
Intestinal mucosa [5] = test: Antiinflammatory activity in ulcerative colitis patient derived inflamed intestinal mucosa assessed as reduction in IL1beta production measured after overnight incubation by immunoassay; type: functional, tissue-based; details: Homo sapiens
[6] = target: T1, Ephrin type-A receptor 6 (Homo sapiens) (UniProt Q9UF33); test: Inhibition of human EPHA6 at 1 uM using poly[Glu:Tyr] (4:1) as substrate in presence of [gamma-33P]ATP relative to control
T1 sequence (whole entry): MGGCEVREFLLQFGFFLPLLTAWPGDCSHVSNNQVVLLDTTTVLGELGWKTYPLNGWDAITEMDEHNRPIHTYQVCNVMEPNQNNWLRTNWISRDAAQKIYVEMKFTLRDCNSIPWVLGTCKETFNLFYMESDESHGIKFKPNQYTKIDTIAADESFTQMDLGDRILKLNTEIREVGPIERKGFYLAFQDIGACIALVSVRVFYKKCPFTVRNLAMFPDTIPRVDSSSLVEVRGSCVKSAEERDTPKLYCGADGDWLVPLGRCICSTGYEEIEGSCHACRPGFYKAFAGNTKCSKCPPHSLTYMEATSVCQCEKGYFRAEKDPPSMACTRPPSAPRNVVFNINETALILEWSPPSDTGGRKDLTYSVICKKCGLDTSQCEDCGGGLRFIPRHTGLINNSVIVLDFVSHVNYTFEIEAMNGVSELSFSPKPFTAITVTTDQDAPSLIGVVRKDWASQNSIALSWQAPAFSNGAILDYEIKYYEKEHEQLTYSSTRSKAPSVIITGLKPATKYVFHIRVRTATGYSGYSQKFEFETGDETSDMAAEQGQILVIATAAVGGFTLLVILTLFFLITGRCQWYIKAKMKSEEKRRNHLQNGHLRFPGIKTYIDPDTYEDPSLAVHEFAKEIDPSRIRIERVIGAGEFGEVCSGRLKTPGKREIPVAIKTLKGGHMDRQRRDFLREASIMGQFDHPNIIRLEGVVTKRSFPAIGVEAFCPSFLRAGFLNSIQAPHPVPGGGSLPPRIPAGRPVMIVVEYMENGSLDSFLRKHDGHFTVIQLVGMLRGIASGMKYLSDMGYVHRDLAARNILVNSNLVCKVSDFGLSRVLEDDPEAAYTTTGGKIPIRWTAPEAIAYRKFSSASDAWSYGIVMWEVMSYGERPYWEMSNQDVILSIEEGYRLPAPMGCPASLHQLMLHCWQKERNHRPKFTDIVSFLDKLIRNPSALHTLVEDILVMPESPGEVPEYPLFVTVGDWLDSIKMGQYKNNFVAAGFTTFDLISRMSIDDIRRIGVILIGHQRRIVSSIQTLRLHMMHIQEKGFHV

[7] = target: Serine/threonine-protein kinase 10 (Homo sapiens) (UniProt O94804); test: Inhibition of human STK10 at 1 uM using RLGRDKYKTLRQIRQ as substrate in presence of [gamma-33P]ATP relative to control
[8] = Clearance in Beagle dog at 2 mg/kg, po or 1.1 mg/kg, iv by LC/MS/MS analysis; type: ADME, organism-based, Canis lupus familiaris; details: in vivo
[9] = Oral bioavailability in Gottingen minipig at 1 mg/kg by LC/MS/MS analysis; type: ADME, organism-based, Sus scrofa; details: pig, in vivo
[10] = Terminal half life in Gottingen minipig at 1 mg/kg, po or 0.4 mg/kg, iv by LC/MS/MS analysis; type: ADME, organism-based, Sus scrofa; details: pig, in vivo, read-out: beta t1/2 (converted)
[11] = Prodrug conversion in human hepatocytes assessed as dephosphorylation at 20 uM measured after 4 hrs; type: ADME, cell-based, Hepatocyte
[12] = Half life in rat intestinal S9 fraction; type: ADME, subcellular, Intestine
[13] = Prodrug conversion in minipig hepatocytes assessed as 2-(4-(benzo[d]thiazol-5-ylamino)-6-(tert-butylsulfonyl)-1,2,3,4-tetrahydroquinazolin-7-yloxy)ethanol formation at 20 uM measured after 4 hrs; type: ADME, cell-based, Sus scrofa, Hepatocyte; details: pig
[14] = Solubility of the compound in FeSSIF; type: physicochemical; details: simulated gi fluid
[15] = Prodrug conversion in human hepatocytes assessed as oxidation at 20 uM measured after 4 hrs; type: ADME, cell-based, Hepatocyte
[16] = Cmax in Beagle dog assessed as 2-((4-(Benzo[d]thiazol-5-ylamino)-6-(tert-butylsulfonyl)quinazolin-7-yl)oxy)ethanol level at 2 mg/kg, po by LC/MS/MS analysis; type: ADME, organism-based, Canis lupus familiaris; design: dose 2 mg/kg, route oral; details: in vivo
[17] = Oral bioavailability in Gottingen minipig assessed as 2-((4-(Benzo[d]thiazol-5-ylamino)-6-(tert-butylsulfonyl)quinazolin-7-yl)oxy)ethanol level at 1 mg/kg by LC/MS/MS analysis; type: ADME, organism-based, Sus scrofa; details: pig, in vivo
[18] = Volume of distribution at steady state in Sprague-Dawley rat assessed as 2-((4-(Benzo[d]thiazol-5-ylamino)-6-(tert-butylsulfonyl)quinazolin-7-yl)oxy)ethanol level at 2 mg/kg, po or 1.1 mg/kg, iv by LC/MS/MS analysis; type: ADME, organism-based; details: in vivo
[19] = Prodrug conversion in minipig hepatocytes assessed as 2-((4-(Benzo[d]thiazol-5-ylamino)-6-(tert-butylsulfonyl)quinazolin-7-yl)oxy)ethanol formation at 20 uM measured after 4 hrs; type: ADME, cell-based, Sus scrofa, Hepatocyte; details: pig
[20] = Half life in dog intestinal S9 fraction; type: ADME, subcellular, Canis lupus familiaris, Intestine

Chain of Serine/threonine-protein kinase 10 (Homo sapiens) (O94804 whole entry, looked up): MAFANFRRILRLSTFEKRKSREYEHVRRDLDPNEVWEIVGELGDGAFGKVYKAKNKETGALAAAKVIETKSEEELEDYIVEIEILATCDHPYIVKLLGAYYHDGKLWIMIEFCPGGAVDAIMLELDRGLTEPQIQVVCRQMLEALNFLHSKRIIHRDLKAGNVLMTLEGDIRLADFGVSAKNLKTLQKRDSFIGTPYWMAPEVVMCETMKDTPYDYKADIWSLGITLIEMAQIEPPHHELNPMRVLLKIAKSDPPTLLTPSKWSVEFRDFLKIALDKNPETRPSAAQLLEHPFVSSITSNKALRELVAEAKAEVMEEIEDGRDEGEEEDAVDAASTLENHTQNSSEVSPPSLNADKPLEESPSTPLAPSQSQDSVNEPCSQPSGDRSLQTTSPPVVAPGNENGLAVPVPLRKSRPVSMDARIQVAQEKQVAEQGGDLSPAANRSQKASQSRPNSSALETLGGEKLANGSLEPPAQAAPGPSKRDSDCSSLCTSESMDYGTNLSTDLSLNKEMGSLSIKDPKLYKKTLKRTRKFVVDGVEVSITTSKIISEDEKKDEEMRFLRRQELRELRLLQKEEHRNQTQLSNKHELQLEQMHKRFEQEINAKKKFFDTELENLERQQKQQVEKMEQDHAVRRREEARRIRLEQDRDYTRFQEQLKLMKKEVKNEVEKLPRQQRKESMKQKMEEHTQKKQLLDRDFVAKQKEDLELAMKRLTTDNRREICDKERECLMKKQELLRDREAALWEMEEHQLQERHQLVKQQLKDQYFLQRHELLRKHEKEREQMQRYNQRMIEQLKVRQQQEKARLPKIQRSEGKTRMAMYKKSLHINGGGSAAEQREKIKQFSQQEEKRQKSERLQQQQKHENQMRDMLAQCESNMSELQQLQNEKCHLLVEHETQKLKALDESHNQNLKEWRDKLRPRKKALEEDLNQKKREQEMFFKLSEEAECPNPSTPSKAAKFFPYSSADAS
Chain of Receptor-interacting serine/threonine-protein kinase 2 (O43353 whole entry): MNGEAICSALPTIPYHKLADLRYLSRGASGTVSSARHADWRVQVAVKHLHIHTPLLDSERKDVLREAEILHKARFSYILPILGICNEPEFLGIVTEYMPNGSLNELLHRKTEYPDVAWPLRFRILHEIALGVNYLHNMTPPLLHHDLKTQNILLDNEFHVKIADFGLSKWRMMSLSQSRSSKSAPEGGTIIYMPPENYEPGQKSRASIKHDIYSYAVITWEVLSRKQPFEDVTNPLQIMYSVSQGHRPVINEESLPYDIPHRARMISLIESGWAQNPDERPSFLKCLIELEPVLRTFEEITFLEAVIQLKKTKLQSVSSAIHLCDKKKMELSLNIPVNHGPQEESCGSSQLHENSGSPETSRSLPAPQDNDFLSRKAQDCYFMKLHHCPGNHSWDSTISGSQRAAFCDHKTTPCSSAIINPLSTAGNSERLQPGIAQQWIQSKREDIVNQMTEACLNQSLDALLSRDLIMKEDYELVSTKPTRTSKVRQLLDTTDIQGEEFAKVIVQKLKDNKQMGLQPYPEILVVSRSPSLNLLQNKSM

Structure (SMILES): CC(C)(C)S(=O)(=O)c1cc2c(Nc3ccc4scnc4c3)ncnc2cc1OCCO
- IC50 [1]: 26 nM
- bioavailability [2]: 39%
- Cmax [3]: 31 ng/mL
- Activity (Intestinal mucosa [4]): Dose-dependent effect
- IC50 (Intestinal mucosa [4]): 10 nM
- Activity (Intestinal mucosa [5]): Dose-dependent effect
- IC50 (Intestinal mucosa [5]): 10 nM
- inhibition [6]: 70 to 90%
- inhibition [7]: 70 to 90%
- clearance [8]: 9.9 mL/min/kg
- F [9]: 26%
- half-life [10]: 114 min

Structure (SMILES): CC(C)(C)S(=O)(=O)c1cc2c(Nc3ccc4scnc4c3)ncnc2cc1OCCOP(=O)(O)O.[CaH2]
- Drug metabolism [11]: Metabolite_Detected
- half-life [12]: 3.3 min
- Drug metabolism [13]: Metabolite_Detected
- solubility [14]: Soluble
- Drug metabolism [15]: Metabolite_Detected
- Cmax [16]: 840 ng/mL
- F [17]: 58%
- Vdss [18]: 2.1 L/kg
- Drug metabolism [19]: Metabolite_Detected
- half-life [20]: 8 min

Reference: ChEMBL document CHEMBL4364295, “Discovery of a First-in-Class Receptor Interacting Protein 2 (RIP2) Kinase Specific Clinical Candidate, 2-((4-(Benzo[d]thiazol-5-ylamino)-6-(tert-butylsulfonyl)quinazolin-7-yl)oxy)ethyl Dihydrogen Phosphate, for the Treatment of Inflammatory Diseases” (J Med Chem, 2019)
